Common to all, as to assay: Kinase panel (mobility shift)
Format in all cases: biochemical

The target in one experiment is T1, EPH-B2 (Homo sapiens, UniProt P29323).
T1 sequence (P29323 19-1055): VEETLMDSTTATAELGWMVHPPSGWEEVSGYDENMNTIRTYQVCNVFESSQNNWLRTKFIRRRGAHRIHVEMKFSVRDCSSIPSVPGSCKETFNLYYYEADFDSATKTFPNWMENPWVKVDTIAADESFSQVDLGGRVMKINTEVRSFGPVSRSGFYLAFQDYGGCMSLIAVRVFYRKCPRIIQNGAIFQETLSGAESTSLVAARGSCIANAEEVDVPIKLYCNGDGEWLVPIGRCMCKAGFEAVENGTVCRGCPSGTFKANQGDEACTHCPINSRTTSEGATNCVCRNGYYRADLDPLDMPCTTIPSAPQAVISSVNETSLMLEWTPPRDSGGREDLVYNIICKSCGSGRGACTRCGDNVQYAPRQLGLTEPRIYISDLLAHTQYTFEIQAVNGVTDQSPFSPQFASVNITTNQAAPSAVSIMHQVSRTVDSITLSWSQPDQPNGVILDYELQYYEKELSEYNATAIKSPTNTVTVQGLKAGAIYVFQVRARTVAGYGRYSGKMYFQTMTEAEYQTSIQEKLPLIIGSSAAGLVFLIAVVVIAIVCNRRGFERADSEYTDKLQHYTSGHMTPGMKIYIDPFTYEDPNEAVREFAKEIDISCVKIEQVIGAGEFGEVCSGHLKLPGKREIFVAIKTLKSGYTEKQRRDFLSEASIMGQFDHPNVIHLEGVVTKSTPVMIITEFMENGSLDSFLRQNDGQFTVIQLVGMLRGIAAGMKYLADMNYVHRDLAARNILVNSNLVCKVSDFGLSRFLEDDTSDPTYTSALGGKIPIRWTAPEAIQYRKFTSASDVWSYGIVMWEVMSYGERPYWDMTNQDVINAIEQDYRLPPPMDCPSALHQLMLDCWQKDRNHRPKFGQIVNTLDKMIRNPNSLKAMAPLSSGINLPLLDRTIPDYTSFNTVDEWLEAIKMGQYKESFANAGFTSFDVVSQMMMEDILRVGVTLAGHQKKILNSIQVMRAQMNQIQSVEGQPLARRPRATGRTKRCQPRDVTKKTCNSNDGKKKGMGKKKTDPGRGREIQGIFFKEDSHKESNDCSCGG
The note with it: at 5 um. The method in brief: (§1)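 Each kinase was incubated with a fluorescently labeled substrate and compound in a standard reaction mix. After the reaction was stopped, product and substrate were separated on microfluidic chips by electrophoretic mobility shift. Activity came from comparing product and substrate peak fluorescence, graded A (95% or greater), B (90%-94%) or C (80%-89%) at 5 um.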

The next experiment deals with T2, EPH-B4 (Homo sapiens, UniProt P54760).
T2 sequence (P54760 16-987): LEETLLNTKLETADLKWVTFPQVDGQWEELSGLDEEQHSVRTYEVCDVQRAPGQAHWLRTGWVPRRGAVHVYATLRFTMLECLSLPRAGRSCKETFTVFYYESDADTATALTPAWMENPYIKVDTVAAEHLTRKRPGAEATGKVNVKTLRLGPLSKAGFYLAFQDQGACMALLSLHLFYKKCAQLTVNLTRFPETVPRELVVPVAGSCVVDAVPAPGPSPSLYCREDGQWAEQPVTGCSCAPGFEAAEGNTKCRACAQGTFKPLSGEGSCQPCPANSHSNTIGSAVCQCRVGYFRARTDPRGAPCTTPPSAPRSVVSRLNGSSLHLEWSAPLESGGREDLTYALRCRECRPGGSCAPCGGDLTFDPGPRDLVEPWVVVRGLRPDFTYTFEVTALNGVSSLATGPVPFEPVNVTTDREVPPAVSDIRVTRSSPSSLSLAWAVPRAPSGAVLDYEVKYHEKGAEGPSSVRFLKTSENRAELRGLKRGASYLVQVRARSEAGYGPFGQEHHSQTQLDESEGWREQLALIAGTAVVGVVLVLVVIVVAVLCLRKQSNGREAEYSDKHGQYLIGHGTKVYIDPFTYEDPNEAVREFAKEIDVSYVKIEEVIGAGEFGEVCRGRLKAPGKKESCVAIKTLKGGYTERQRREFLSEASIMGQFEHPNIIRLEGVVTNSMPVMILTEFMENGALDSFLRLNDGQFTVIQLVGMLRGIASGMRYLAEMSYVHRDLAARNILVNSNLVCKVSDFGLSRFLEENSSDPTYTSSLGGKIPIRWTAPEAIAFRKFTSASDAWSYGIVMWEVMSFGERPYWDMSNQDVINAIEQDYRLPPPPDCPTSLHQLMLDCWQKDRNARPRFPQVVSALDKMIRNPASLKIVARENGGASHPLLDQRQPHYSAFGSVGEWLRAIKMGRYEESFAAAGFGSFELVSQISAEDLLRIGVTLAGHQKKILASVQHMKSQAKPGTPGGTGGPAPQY
The method in brief: as §1

A further experiment concerns the target TRKA (Homo sapiens, UniProt P04629). The gist of the method:
as §1

The structures appear in SMILES notation.

TRKA, sequence (P04629 33-796, species assumed): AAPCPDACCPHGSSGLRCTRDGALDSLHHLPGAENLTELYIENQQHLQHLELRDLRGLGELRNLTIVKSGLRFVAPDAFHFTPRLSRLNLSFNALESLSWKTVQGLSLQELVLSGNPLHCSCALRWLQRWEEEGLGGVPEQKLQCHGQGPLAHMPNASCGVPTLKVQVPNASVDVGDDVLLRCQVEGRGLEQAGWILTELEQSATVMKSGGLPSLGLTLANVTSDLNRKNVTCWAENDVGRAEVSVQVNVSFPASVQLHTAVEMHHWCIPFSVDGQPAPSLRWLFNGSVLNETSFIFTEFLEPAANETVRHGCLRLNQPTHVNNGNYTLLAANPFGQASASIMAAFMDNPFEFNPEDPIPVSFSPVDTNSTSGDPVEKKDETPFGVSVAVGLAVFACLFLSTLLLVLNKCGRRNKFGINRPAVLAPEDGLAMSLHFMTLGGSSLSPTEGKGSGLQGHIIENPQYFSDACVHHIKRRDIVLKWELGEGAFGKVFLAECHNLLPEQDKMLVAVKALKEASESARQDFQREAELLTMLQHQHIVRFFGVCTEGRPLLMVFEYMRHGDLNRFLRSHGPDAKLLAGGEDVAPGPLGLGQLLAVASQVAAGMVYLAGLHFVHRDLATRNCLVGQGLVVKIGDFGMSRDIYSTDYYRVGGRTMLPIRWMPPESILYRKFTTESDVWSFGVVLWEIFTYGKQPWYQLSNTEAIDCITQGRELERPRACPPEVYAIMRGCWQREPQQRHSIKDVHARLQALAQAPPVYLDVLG

On to `CSc1nc(C(=O)Nc2ccc(Oc3ccnc(N)c3Cl)c(F)c2)c(-c2ccc(F)cc2)o1` [Compound 1], for which, on EPH-B2, the “inhibition of kinase activity, EPH-B2” value is recorded as “E (category E is less than 50%)”. Besides, the inhibition at 5 µM on EPH-B4 and on TRKA was less than 50% in each case.

With `CSc1nc(C(=O)Nc2ccc(Oc3cc4cnn(C)c4cc3Br)c(F)c2)c(-c2ccc(F)cc2)o1` [Compound 2], the “inhibition of kinase activity, EPH-B2” value at EPH-B2 was “E (category E is less than 50%)”. For the same compound, the inhibition at 5 µM on EPH-B4 and at TRKA was less than 50% each time.

Turning to `CNC(=O)c1cc(Oc2ccc(NC(=O)c3nc(SC)oc3-c3ccc(F)cc3Cl)cc2)ccn1` [Compound 3], the “inhibition of kinase activity, EPH-B2” value at EPH-B2 was “E (category E is less than 50%)”. Further, the inhibition at 5 µM at EPH-B4 was less than 50%; at TRKA, 80 to 89%.

In the case of `CNC(=O)c1cc(Oc2ccc(NC(=O)c3nc(SC)oc3-c3ccc(F)c(F)c3)cc2)ccn1` [Compound 4], the “inhibition of kinase activity, EPH-B2” value on EPH-B2 was “E (category E is less than 50%)”. Moreover, the inhibition at 5 µM on EPH-B4 was less than 50%; on TRKA, 50 to 79%.

In the case of `CNC(=O)c1cc(Oc2ccc(NC(=O)c3nc(SC)oc3-c3ccc(Cl)s3)cc2)ccn1` [Compound 5], the “inhibition of kinase activity, EPH-B2” value at EPH-B2 was “E (category E is less than 50%)”. For the same compound, the inhibition at 5 µM at EPH-B4 and on TRKA was less than 50% in each case.

As to `CNC(=O)c1cc(Oc2ccc(NC(=O)c3nc(SC)oc3-c3ccc(F)cc3F)cc2)ccn1` [Compound 6], at EPH-B2, the “inhibition of kinase activity, EPH-B2” value is “E (category E is less than 50%)”. For the same compound, the inhibition at 5 µM at EPH-B4 is less than 50%; at TRKA it was 80 to 89%.

Consider `CNC(=O)c1cc(Oc2ccc(NC(=O)c3nc(SC)oc3-c3ccc(OC)cc3)cc2)ccn1` [Compound 7], for which, at EPH-B2, the “inhibition of kinase activity, EPH-B2” value is recorded as “E (category E is less than 50%)”. Moreover, the inhibition at 5 µM at EPH-B4 and on TRKA was less than 50% throughout.

On to `CSc1nc(C(=O)Nc2ccc(Oc3ccnc(-c4cnn(C)c4)c3)c(F)c2)c(-c2ccc(F)cc2)o1` [Compound 11], for which the “inhibition of kinase activity, EPH-B2” value at EPH-B2 was “B (B=90%-94% at 5 um)”. In addition, the inhibition at 5 µM on EPH-B4 lay within 80 to 89%; at TRKA, 50 to 79%.

As for `CNC(=O)c1cc(Oc2ccc(NC(=O)c3nc(SC)oc3-c3ccc(F)cc3F)cc2F)ccn1` [Compound 12], the “inhibition of kinase activity, EPH-B2” value on EPH-B2 is recorded as “D (category D for 50-79)”. In addition, the values for the inhibition at 5 µM at EPH-B4 and at TRKA were 50 to 79% and 80 to 89%, respectively.

In the case of `CNC(=O)c1cc(Oc2ccc(NC(=O)c3nc(S(C)(=O)=O)sc3-c3ccc(F)cc3)cc2F)ccn1` [Compound 13], the “inhibition of kinase activity, EPH-B2” value on EPH-B2 is “E (category E is less than 50%)”. The inhibition at 5 µM at EPH-B4 and on TRKA was 50 to 79% in each case.

In the case of `CNC(=O)c1cc(Oc2ccc(NC(=O)c3nc(NC)oc3-c3ccc(F)cc3)cc2F)ccn1` [Compound 14], the “inhibition of kinase activity, EPH-B2” value on EPH-B2 is given as “D (category D for 50-79)”. Besides, the inhibition at 5 µM at EPH-B4 fell in the range of 50 to 79%; on TRKA it was 80 to 89%.

With `CNC(=O)c1cc(Oc2ccc(NC(=O)c3nc(OC)oc3-c3ccc(F)cc3)cc2F)ccn1` [Compound 15], the “inhibition of kinase activity, EPH-B2” value at EPH-B2 is listed as “D (category D for 50-79)”. The inhibition at 5 µM on EPH-B4 and on TRKA was 50 to 79% in each case.

Take `CNC(=O)c1cc(Oc2ccc(NC(=O)c3nc(SC)oc3-c3ccc(F)s3)cc2F)ccn1` [Compound 16]: the “inhibition of kinase activity, EPH-B2” value on EPH-B2 is on record as “D (category D for 50-79)”. In addition, the inhibition at 5 µM at EPH-B4 and at TRKA was less than 50% throughout.

Regarding `CNC(=O)c1cc(Oc2ccc(NC(=O)c3nc(NC)oc3-c3ccc(F)s3)cc2F)ccn1` [Compound 17], the “inhibition of kinase activity, EPH-B2” value on EPH-B2 is “E (category E is less than 50%)”. Further, the inhibition at 5 µM on EPH-B4 is less than 50%; on TRKA, 50 to 79%.

Regarding `CNC(=O)c1cc(Oc2c(F)cc(NC(=O)c3nc(NC)sc3-c3ccc(F)cc3)cc2F)ccn1` [Compound 19], the “inhibition of kinase activity, EPH-B2” value at EPH-B2 is given as “D (category D for 50-79)”. Besides, the inhibition at 5 µM on EPH-B4 and on TRKA was 50 to 79% each time.

Take `CNC(=O)c1cc(Oc2ccc(NC(=O)c3nc(NC)sc3-c3ccc(F)cc3F)cc2F)ccn1` [Compound 21]: on EPH-B2, the “inhibition of kinase activity, EPH-B2” value is recorded as “D (category D for 50-79)”. Further, the inhibition at 5 µM on EPH-B4 was less than 50%; at TRKA, 50 to 79%.

On to `CNC(=O)c1cc(Oc2ccc(NC(=O)c3nc(NC)sc3-c3ccc(F)cc3C)cc2F)ccn1` [Compound 23], for which the “inhibition of kinase activity, EPH-B2” value at EPH-B2 is given as “D (category D for 50-79)”. Moreover, the inhibition at 5 µM lay within 50 to 79% at EPH-B4 and 80 to 89% at TRKA.

In the case of `CNC(=O)c1cc(Oc2ccc(NC(=O)c3nc(OC)oc3-c3ccc(F)c(F)c3)cc2F)ccn1` [Compound 24], the “inhibition of kinase activity, EPH-B2” value at EPH-B2 is given as “E (category E is less than 50%)”. For the same compound, the inhibition at 5 µM is less than 50% at EPH-B4 and 50 to 79% on TRKA.

For the compound `CNC(=O)c1cc(Oc2ccc(NC(=O)c3nc(OC)oc3-c3ccc(F)s3)cc2F)ccn1` [Compound 25], on EPH-B2, the “inhibition of kinase activity, EPH-B2” value is given as “E (category E is less than 50%)”. Further, the inhibition at 5 µM at EPH-B4 and on TRKA was less than 50% throughout.

For the compound `CNC(=O)c1cc(Oc2ccc(NC(=O)c3nc(C4CC4)oc3-c3ccc(F)cc3)cc2F)ccn1` [Compound 26], the “inhibition of kinase activity, EPH-B2” value at EPH-B2 is recorded as “C (C=80%-89% at 5 um)”. Also, the inhibition at 5 µM on EPH-B4 and on TRKA was 80 to 89% in each case.

In the case of `CSc1nc(C(=O)Nc2ccc(Oc3ccnc(C(=O)NC4CNC4)c3)c(F)c2)c(-c2ccc(F)s2)o1` [Compound 27], the “inhibition of kinase activity, EPH-B2” value on EPH-B2 was “E (category E is less than 50%)”. For the same compound, the inhibition at 5 µM on EPH-B4 and at TRKA was less than 50% each time.

Turning to `CSc1nc(C(=O)Nc2ccc(Oc3ccnc(C(=O)NC4COC4)c3)c(F)c2)c(-c2ccc(F)s2)o1` [Compound 28], at EPH-B2, the “inhibition of kinase activity, EPH-B2” value is on record as “E (category E is less than 50%)”. Moreover, the inhibition at 5 µM on EPH-B4 and on TRKA was less than 50% in each case.

With `CSc1nc(C(=O)Nc2ccc(Oc3ccnc(C(=O)NC4CNC4)c3)c(F)c2)c(-c2ccc(F)cc2)o1` [Compound 29], on EPH-B2, the “inhibition of kinase activity, EPH-B2” value is recorded as “E (category E is less than 50%)”. Also, the inhibition at 5 µM on EPH-B4 and at TRKA was less than 50% in each case.

For `CNC(=O)c1cc(Oc2ccc(NC(=O)c3nc(COC)oc3-c3ccc(F)cc3)cc2F)ccn1` [Compound 30], the “inhibition of kinase activity, EPH-B2” value at EPH-B2 is recorded as “B (B=90%-94% at 5 um)”. Further, the inhibition at 5 µM on EPH-B4 is 80 to 89%; at TRKA, 90 to 94%.

Consider `CSc1nc(C(=O)Nc2ccc(Oc3ccnc(C(=O)NC4COC4)c3)c(F)c2)c(-c2ccc(F)cc2)o1` [Compound 31], for which the “inhibition of kinase activity, EPH-B2” value at EPH-B2 is “D (category D for 50-79)”. For the same compound, the inhibition at 5 µM on EPH-B4 and at TRKA was less than 50% in each case.

(Values after patent US11629143B2, “HipK4 inhibitors and uses thereof” (Vibliome Therapeutics, LLC, priority 2020, dated 2023).)
